Assay [1] concerns the target Ras GEF SOS (Son of Sevenless) (Homo sapiens, UniProt Q07889). The experiment in a line: SOS-mediated nucleotide exchange on Ras (BODIPY-GDP fluorescence). The format is biochemical. To be noted: SOS-mediated exchange of BODIPY-GDP for GTP on Ras. An outline of the steps: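 Exchange rates were taken from single-exponential fits of the fluorescence time course as BODIPY-GDP on Ras was replaced by GTP. Compound went in first, then GTP and SOS. Mean rates plotted against concentration gave EC50 by four-parameter dose-response fitting.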

Assay [2] addresses T1, Son of Sevenless (SOS) (Homo sapiens, UniProt Q07889).
T1 sequence (Q07889 564-1049 limits assumed): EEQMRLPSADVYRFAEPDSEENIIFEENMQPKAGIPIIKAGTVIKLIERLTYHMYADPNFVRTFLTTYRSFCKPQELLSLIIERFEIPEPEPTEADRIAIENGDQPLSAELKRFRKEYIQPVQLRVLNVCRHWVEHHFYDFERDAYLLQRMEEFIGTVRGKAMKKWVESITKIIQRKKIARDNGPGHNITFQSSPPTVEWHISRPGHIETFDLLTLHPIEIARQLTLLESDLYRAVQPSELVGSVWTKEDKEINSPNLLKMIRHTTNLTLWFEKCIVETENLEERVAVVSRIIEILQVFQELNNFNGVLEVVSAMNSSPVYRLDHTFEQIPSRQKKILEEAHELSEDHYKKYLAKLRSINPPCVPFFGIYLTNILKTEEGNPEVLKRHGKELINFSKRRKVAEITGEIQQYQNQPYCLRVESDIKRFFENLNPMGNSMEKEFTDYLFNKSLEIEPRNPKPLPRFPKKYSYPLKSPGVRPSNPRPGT
The experiment in a line: Binding to SOS, fluorescence polarization anisotropy (FPA) probe displacement. The settings on record: displacement of FITC-conjugated probe (Example 285), affinity calculated from IC50. The essentials:
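Test compounds were titrated against SOS pre-bound to a fluorescein-labelled probe, with anisotropy plotted versus compound concentration. Binding affinities were derived from IC50 values obtained by four-parameter dose-response fitting.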

For assay [3], the system named is H727 lung cancer cell lines (G12V K-Ras mutation). The experiment in a line: Inhibition of cancer cell proliferation (CellTiter-Glo). The format is cell-based. To be noted: Homo sapiens, NCI-H727, 72 h, read-out: Cell proliferation activity (H727 cancer cell line proliferation IC50). As to the method:
Compounds of the present invention were measured for their ability to kill H727 lung cancer cell lines, which contain a G12V K-Ras mutation. Cell proliferation experiments were conducted in 96-well plates. Cells were plated at 1000 cells/well, incubated overnight, followed by treatment with a dose range of compound for 3 days at 37° C. Cell proliferation was assessed using a CellTiter-Glo assay (Promega) according to the manufacturer's protocol. Data were normalized to DMSO control. IC50 values were determined using a four-parameter dose-response (variable slope) equation. These assays are performed in a manner analogous to the assay disclosed in: Burns, M. C.; Sun, Q.; Daniels, R. N.; Camper, D. V.; Kennedy, J. P.; Phan, J.; Olejniczak, E. O.; Lee, T.; Waterson, A. G.; Rossanese, O. W.; Fesik, S. W. “Approach for targeting Ras with small molecules that activate SOS-mediated nucleotide exchange” Proc. Natl. Acad. Sci. 2014; 11(9): 3401-3406. PMCID: PMC3948241.
On the technique in general: In ATP-based viability assays light output follows the ATP content of the culture.

Structures can show the parent of a compound that is named as a salt. Some results are limits rather than exact numbers.

Sequence of Ras GEF SOS (Son of Sevenless) (P01112 1-166 partner limits assumed, one chain of several): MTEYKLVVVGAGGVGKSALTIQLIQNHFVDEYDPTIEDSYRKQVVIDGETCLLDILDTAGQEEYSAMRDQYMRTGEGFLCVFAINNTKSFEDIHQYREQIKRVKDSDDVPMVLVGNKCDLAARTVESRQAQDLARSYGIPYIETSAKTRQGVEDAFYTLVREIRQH

By EC50 is commonly meant the concentration that produces a half-maximal response. Low values mean higher potency in that assay, high ones lower potency in that assay. The Ki is the equilibrium dissociation constant of an inhibitor or competing ligand from its target. `Cc1cc2c(nc(NCCN)n2Cc2ccc(F)c(Cl)c2)c(-c2ccccc2)c1C` [Example 111, N^1-(1-(3-chloro-4-fluorobenzyl)-5,6-dimethyl-4-phenyl-1H-benzo[d]imidazol-2-yl)ethane-1,2-diamine trifluoroacetate]: the EC50 in assay [1] lay within 1000 to 5000 nM. In addition, the Ki in assay [2] was 1000 to 5000 nM. In addition, in assay [3], the IC50 is 1000 to 5000 nM.

Regarding `Cc1cc2c(nc(NCCN)n2Cc2ccc(F)c(Cl)c2)c(-c2ccccc2Cl)c1C` [Example 113, N^1-(1-(3-chloro-4-fluorobenzyl)-4-(2-chlorophenyl)-5,6-dimethyl-1H-benzo[d]imidazol-2-yl)ethane-1,2-diamine trifluoroacetate], the concentration giving a half-maximal response (EC50) in assay [1] is 1000 to 5000 nM. Besides, the Ki in assay [2] was less than 500 nM. Further, the IC50 in assay [3] fell in the range of 1000 to 5000 nM.

`Cc1cc2c(nc(NCCN)n2Cc2ccc(F)c(Cl)c2)c(-c2c(C)nn(C)c2C)c1C` [Example 114, N^1-(1-(3-chloro-4-fluorobenzyl)-5,6-dimethyl-4-(1,3,5-trimethyl-1H-pyrazol-4-yl)-1H-benzo[d]imidazol-2-yl)ethane-1,2-diamine trifluoroacetate] gave a half-maximal effective concentration (EC50) in assay [1] of 1000 to 5000 nM. Moreover, the Ki in assay [2] was 1000 to 5000 nM. Besides, the IC50 in assay [3] lay within 5000 to 20000 nM.

In assay [1], `Cc1cc(-c2ccccc2Cl)c2nc(N3CCNCC3)n(Cc3ccc(F)c(Cl)c3)c2c1` [Example 118, 1-(3-chloro-4-fluorobenzyl)-4-(2-chlorophenyl)-6-methyl-2-(piperazin-1-yl)-1H-benzo[d]imidazole trifluoroacetate] displayed an EC50 of 1000 to 5000 nM. Also, the inhibition constant (Ki) in assay [2] was less than 500 nM. Besides, in assay [3], the IC50 lay within 1000 to 5000 nM.

In assay [1], `Cc1cc(-c2ccccc2F)c2nc(N3CCNCC3)n(Cc3ccc(F)c(Cl)c3)c2c1` [Example 119, 1-(3-chloro-4-fluorobenzyl)-4-(2-fluorophenyl)-6-methyl-2-(piperazin-1-yl)-1H-benzo[d]imidazole trifluoroacetate] displayed a half-maximal effective concentration (EC50) of 1000 to 5000 nM. Besides, the inhibition constant Ki in assay [2] was less than 500 nM. In addition, the IC50 in assay [3] was more than 20000 nM.

On to `Cc1cc(-c2ccccc2C)c2nc(N3CCNCC3)n(Cc3ccc(F)c(Cl)c3)c2c1` [Example 120, 1-(3-chloro-4-fluorobenzyl)-6-methyl-2-(piperazin-1-yl)-4-(o-tolyl)-1H-benzo[d]imidazole trifluoroacetate], for which the EC50 in assay [1] was in the range of 1000 to 5000 nM. In addition, in assay [2], the Ki is less than 500 nM. Also, the IC50 in assay [3] lay in the range of 1000 to 5000 nM.

`Cc1cc(CN2CCCC2)c2nc(N3CCNCC3)n(Cc3cc(C)c(F)c(C)c3)c2c1` [Example 124, 1-(4-fluoro-3,5-dimethylbenzyl)-6-methyl-2-(piperazin-1-yl)-4-(pyrrolidin-1-ylmethyl)-1H-benzo[d]imidazole trifluoroacetate] returned an EC50 in assay [1] of less than 1000 nM. Further, the Ki in assay [2] was 1000 to 5000 nM. In assay [3], the IC50 was 1000 to 5000 nM.

Turning to `Cc1cc(CN2CCCCC2)c2nc(N3CCNCC3)n(Cc3cc(C)c(F)c(C)c3)c2c1` [Example 125, 1-(4-fluoro-3,5-dimethylbenzyl)-6-methyl-2-(piperazin-1-yl)-4-(piperidin-1-ylmethyl)-1H-benzo[d]imidazole trifluoroacetate], the EC50 in assay [1] lay in the range of 1000 to 5000 nM. Moreover, in assay [2], the Ki was 1000 to 5000 nM. The IC50 in assay [3] lay within 1000 to 5000 nM.

Consider `Cc1cc(CN2CCC(O)CC2)c2nc(N3CCNCC3)n(Cc3cc(C)c(F)c(C)c3)c2c1` [Example 126, 1-((1-(4-fluoro-3,5-dimethylbenzyl)-6-methyl-2-(piperazin-1-yl)-1H-benzo[d]imidazol-4-yl)methyl)piperidin-4-ol trifluoroacetate], for which the EC50 in assay [1] was in the range of 1000 to 5000 nM. Also, the Ki in assay [2] is 1000 to 5000 nM. Besides, the IC50 in assay [3] is 1000 to 5000 nM.

For `Cc1cc(CN2CCOCC2)c2nc(N3CCNCC3)n(Cc3cc(C)c(F)c(C)c3)c2c1` [Example 127, 4-((1-(4-fluoro-3,5-dimethylbenzyl)-6-methyl-2-(piperazin-1-yl)-1H-benzo[d]imidazol-4-yl)methyl)morpholine trifluoroacetate], the EC50 in assay [1] was 1000 to 5000 nM. Besides, in assay [2], the inhibition constant Ki is 1000 to 5000 nM. Also, in assay [3], the IC50 was in the range of 1000 to 5000 nM.

Regarding `Cc1cc(CN(C)C)c2nc(N3CCNCC3)n(Cc3cc(C)c(F)c(C)c3)c2c1` [Example 128, 1-(1-(4-fluoro-3,5-dimethylbenzyl)-6-methyl-2-(piperazin-1-yl)-1H-benzo[d]imidazol-4-yl)-N,N-dimethylmethanamine trifluoroacetate], in assay [1], the EC50 was less than 1000 nM. Moreover, the Ki in assay [2] was 500 to 1000 nM. Further, in assay [3], the IC50 was 1000 to 5000 nM.

Turning to `CNCc1cc(Cl)cc2c1nc(N1CCNCC1)n2Cc1cc(C)c(F)c(C)c1` [Example 129, 1-(6-chloro-1-(4-fluoro-3,5-dimethylbenzyl)-2-(piperazin-1-yl)-1H-benzo[d]imidazol-4-yl)-N-methylmethanamine trifluoroacetate], the concentration giving a half-maximal response (EC50) in assay [1] is less than 1000 nM. For the same molecule, the inhibitory constant (Ki) in assay [2] was less than 500 nM. In addition, in assay [3], the IC50 lay within 1000 to 5000 nM.

As for `Cc1cc(Cn2c(N3CCNCC3)nc3c(CN4CCCC4)cc(Cl)cc32)cc(C)c1F` [Example 130, 6-chloro-1-(4-fluoro-3,5-dimethylbenzyl)-2-(piperazin-1-yl)-4-(pyrrolidin-1-ylmethyl)-1H-benzo[d]imidazole trifluoroacetate], the EC50 in assay [1] was less than 1000 nM. Also, the inhibition constant (Ki) in assay [2] is less than 500 nM. Moreover, the IC50 in assay [3] was 1000 to 5000 nM.

`CCCNCc1c(C)c(C)cc2c1nc(N1CCNCC1)n2Cc1cc(C)c(F)c(C)c1` [Example 132, N-((1-(4-fluoro-3,5-dimethylbenzyl)-5,6-dimethyl-2-(piperazin-1-yl)-1H-benzo[d]imidazol-4-yl)methyl)propan-1-amine trifluoroacetate]: the EC50 in assay [1] is less than 1000 nM. Also, the inhibitory constant (Ki) in assay [2] is 1000 to 5000 nM. Besides, in assay [3], the IC50 was 1000 to 5000 nM.

`Cc1cc(C2NCCc3c2[nH]c2ccccc32)c2nc(N3CCNCC3)n(Cc3cc(C)c(F)c(C)c3)c2c1` (stereo not drawn) [Example 139, 1-(1-(4-fluoro-3,5-dimethylbenzyl)-6-methyl-2-(piperazin-1-yl)-1H-benzo[d]imidazol-4-yl)-2,3,4,9-tetrahydro-1H-pyrido[3,4-b]indole trifluoroacetate]: the 50% effective concentration (EC50) in assay [1] fell in the range of 1000 to 5000 nM. The Ki in assay [2] was 1000 to 5000 nM. Further, the IC50 in assay [3] was in the range of 1000 to 5000 nM.

As to `C=C[C@H](N)c1cc(Cl)cc2c1nc(NCCN)n2Cc1cc(C)c(F)c(C)c1` [Example 156, (S)—N^1-(4-(1-aminoallyl)-6-chloro-1-(4-fluoro-3,5-dimethylbenzyl)-1H-benzo[d]imidazol-2-yl)ethane-1,2-diamine trifluoroacetate], the half-maximal effective concentration (EC50) in assay [1] was less than 1000 nM. In assay [2], the inhibition constant (Ki) was less than 500 nM. In assay [3], the IC50 is 1000 to 5000 nM.

For the molecule `Cc1cc(Cn2c(N3CCNCC3)nc3c([C@@H](N)c4ccccc4)cc(Cl)cc32)cc(C)c1F` [Example 159, (S)-(6-chloro-1-(4-fluoro-3,5-dimethylbenzyl)-2-(piperazin-1-yl)-1H-benzo[d]imidazol-4-yl)(phenyl)methanamine trifluoroacetate], the EC50 in assay [1] was less than 1000 nM. In assay [2], the inhibition constant Ki is less than 500 nM. Besides, the IC50 in assay [3] is less than 1000 nM.

`CC[C@H](N)c1cc(C)cc2c1nc(N1CCNCC1)n2Cc1cc(C)c(F)c(C)c1` [Example 161, (S)-1-(1-(4-fluoro-3,5-dimethylbenzyl)-6-methyl-2-(piperazin-1-yl)-1H-benzo[d]imidazol-4-yl)propan-1-amine trifluoroacetate] showed a concentration giving a half-maximal response (EC50) in assay [1] of less than 1000 nM. The inhibitory constant (Ki) in assay [2] was 500 to 1000 nM. Besides, the IC50 in assay [3] was in the range of 1000 to 5000 nM.

Consider `C=C[C@H](N)c1cc(C)cc2c1nc(N1CCNCC1)n2Cc1cc(C)c(F)c(C)c1` [Example 162, (S)-1-(1-(4-fluoro-3,5-dimethylbenzyl)-6-methyl-2-(piperazin-1-yl)-1H-benzo[d]imidazol-4-yl)prop-2-en-1-amine trifluoroacetate], for which the EC50 in assay [1] was in the range of 1000 to 5000 nM. Moreover, the inhibitory constant (Ki) in assay [2] is 1000 to 5000 nM. For the same molecule, in assay [3], the IC50 is 1000 to 5000 nM.

On to `CCC[C@H](N)c1cc(Cl)cc2c1nc(N1CCNCC1)n2Cc1cc(C)c(F)c(C)c1` [Example 164, (S)-1-(6-chloro-1-(4-fluoro-3,5-dimethylbenzyl)-2-(piperazin-1-yl)-1H-benzo[d]imidazol-4-yl)butan-1-amine trifluoroacetate], for which the EC50 in assay [1] was 1000 to 5000 nM. In addition, the inhibition constant Ki in assay [2] is less than 500 nM. Also, in assay [3], the IC50 was less than 1000 nM.

(Values after patent publication US10501421B1, “Substituted benzimidazoles as modulators of Ras signaling” (VANDERBILT UNIVERSITY, priority 2017, dated 2019).)
